Measured values: ChEMBL document CHEMBL4418278, “Serine racemase inhibitor” (2014)

Target: T1, Serine racemase (Homo sapiens) (UniProt Q9GZT4)
T1 sequence (whole entry): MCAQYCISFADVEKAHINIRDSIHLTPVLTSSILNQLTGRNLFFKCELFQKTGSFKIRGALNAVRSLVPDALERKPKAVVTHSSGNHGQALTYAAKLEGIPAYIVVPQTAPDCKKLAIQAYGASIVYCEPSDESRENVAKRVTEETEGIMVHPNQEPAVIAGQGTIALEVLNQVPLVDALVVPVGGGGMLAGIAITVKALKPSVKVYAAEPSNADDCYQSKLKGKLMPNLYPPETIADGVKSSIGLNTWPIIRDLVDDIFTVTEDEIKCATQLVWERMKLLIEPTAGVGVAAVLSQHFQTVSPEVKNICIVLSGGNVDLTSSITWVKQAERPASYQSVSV
Test: Inhibition of recombinant human SRR expressed in Escherichia coli assessed as reduction in conversion of L-serine to D-serine at 1 mM incubated for => 8 hrs in presence of PLP and recombinant D-serine dehydratase 1 by spectrophotometry relative to control

inhibition [%]	Compound
54 to 85	O=C(O)CC(=O)O
46	O=C(/C=C/c1ccc(F)cc1)NC(=S)NNC(=O)c1cccs1
86	COCCCNC(=S)NCCNS(=O)(=O)c1ccc(C)cc1
33	O=C(/C=C/c1c(Cl)cc(Cl)cc1Cl)NC(=S)NNC(=O)Cc1cccs1
76	Cc1ccc(S(=O)(=O)NCCNC(=O)Nc2ccc(F)cc2)cc1
27	COc1ccc(/C=C/C(=O)NC(=S)NNC(=O)Cc2cccs2)c(OC)c1
45	O=C(/C=C/c1ccc(F)cc1)NC(=S)NNC(=O)Cc1ccccc1
33	O=C(/C=C/c1c(F)cc(F)cc1F)NC(=S)NNC(=O)Cc1ccccc1
31	COc1cccc(CC(=O)NNC(=S)NC(=O)/C=C/c2cc(Br)cc(Br)c2)c1
69	Cc1ccc(S(=O)(=O)NCCNC(=S)Nc2ccccc2Cl)cc1
23	O=C(/C=C/c1ccc(Cl)cc1)NC(=S)NNC(=O)Cc1cccs1
49	O=C(NCCNS(=O)(=O)c1ccc(Br)cc1)Nc1ccc(Cl)c(Cl)c1
61	COc1ccc(S(=O)(=O)NCCNC(=O)Nc2ccc(Cl)c(Cl)c2)cc1
52	O=C(/C=C/c1cc(Br)cc(Br)c1)NC(=S)NNC(=O)c1cccs1
24	COc1cccc(OC)c1/C=C/C(=O)NC(=S)NNC(=O)Cc1ccccc1
53	O=C(COc1ccc(Br)cc1)NCC(=O)NC1CCCCC1
67	O=C(Cc1cc(F)cc(F)c1)NNC(=S)NC(=O)Cc1ccccc1
52	Cc1ccc(S(=O)(=O)NCCNC(=O)Nc2ccc(Cl)c(Cl)c2)cc1
55	O=C(NCCCNS(=O)(=O)c1ccc(Br)cc1)Nc1ccc(Cl)c(Cl)c1
55	COc1ccc(S(=O)(=O)NCCCNC(=O)Nc2ccc(Cl)c(Cl)c2)cc1
61	O=C(Cc1cccs1)NNC(=S)NC(=O)Cc1ccccc1
31	COc1cccc(OC)c1/C=C/C(=O)NC(=S)NNC(=O)c1cccs1
54	Cc1ccc(S(=O)(=O)Nc2ccccc2NC(=O)Nc2ccc(F)cc2)cc1
70	O=C(CCc1ccccc1)NNC(=S)NC(=O)Cc1ccccc1

inhibition [%]	Compound
0	O=C(Cc1ccc(F)cc1)NNC(=S)NC(=O)Cc1ccccc1
35	O=C(/C=C/c1ccc([N+](=O)[O-])cc1)NC(=S)NNC(=O)Cc1cccs1
24	Cc1cccc(CC(=O)NNC(=S)NC(=O)/C=C/c2cc(Br)cc(Br)c2)c1
76	COc1ccccc1NC(=S)NCCNS(=O)(=O)c1ccc(C)cc1
74	O=C(Cc1c(F)cccc1F)NNC(=S)NC(=O)Cc1ccccc1
57	Cc1ccc(S(=O)(=O)NCCNC(=O)Nc2ccc(Br)cc2Cl)cc1
79	Cc1ccc(S(=O)(=O)NCCNC(=O)Nc2ccccc2)cc1
28	O=C(/C=C/c1cc(Br)cc(Br)c1)NC(=S)NNC(=O)Cc1cccs1
31	O=C(/C=C/c1cc(Br)cc(Br)c1)NC(=S)NNC(=O)CCc1ccccc1
55	O=C(/C=C/c1ccc(-c2ccccc2)cc1)NC(=S)NNC(=O)Cc1cccs1
62	Cc1ccc(S(=O)(=O)NCCNC(=O)NS(=O)(=O)c2ccccc2C)cc1
63	COc1ccc(C)cc1NC(=S)NCCNS(=O)(=O)c1ccc(C)cc1
24	Cc1ccc(/C=C/C(=O)NC(=S)NNC(=O)Cc2cccs2)cc1
49	Cc1ccc(S(=O)(=O)Nc2ccccc2NC(=O)Nc2ccc(Cl)c(Cl)c2)cc1
62	COc1ccc(NC(=O)CNC(=O)COc2ccccc2)c(C)c1
59	Cc1ccc(S(=O)(=O)NCCNC(=O)Nc2ccc(Cl)cc2Cl)cc1
20	O=C(/C=C/c1cc(Br)cc(Br)c1)NC(=S)NNC(=O)Cc1ccccc1
44	O=C(/C=C/c1ccc(C(F)(F)F)cc1)NC(=S)NNC(=O)Cc1cccs1
31	O=C(/C=C/c1cc(Br)cc(Br)c1)NC(=S)NNC(=O)c1ccccc1
41	O=C(Cc1ccccc1)NNC(=S)NC(=O)Cc1ccccc1
64	COc1cccc(NC(=O)NCCNS(=O)(=O)c2ccc(C)cc2)c1
45	Cc1cccc(CC(=O)NNC(=S)NC(=O)Cc2ccccc2)c1
49	O=C(/C=C/c1cc(Br)cc(Br)c1)NC(=S)NNC(=O)Cc1ccc(F)cc1
58	Cc1ccc(S(=O)(=O)NCCNC(=S)Nc2ccccc2C)cc1

Target: T1, Serine racemase (Homo sapiens)
Test: Inhibition of recombinant human SRR expressed in Escherichia coli assessed as reduction in conversion of L-serine to D-serine at 0.1 mM incubated for => 8 hrs in presence of PLP and recombinant D-serine dehydratase 1 by spectrophotometry relative to control

inhibition [%]	Compound
62 to 110	O=C(O)CC(=O)O
77	O=C(CNS(=O)(=O)Cc1ccccc1)Nc1c(F)cccc1F
63	O=C(CNS(=O)(=O)Cc1ccccc1)Nc1cccc(Br)c1
65	O=C(CNS(=O)(=O)Cc1ccccc1)OCc1ccccc1
84	Cc1ccc(S(=O)(=O)NCC(=O)OCc2ccccc2)cc1
99	O=C(COc1ccc(Br)cc1)NCC(=O)NC1CCCCC1
60	Cc1ccc(S(=O)(=O)NCC(=O)NNC(=O)Cc2ccc(F)cc2)cc1
59	COc1ccc(S(=O)(=O)NCC(=O)Nc2cccc(Br)c2)cc1
56	Cc1ccc(S(=O)(=O)NCC(=O)Nc2ccc(OCc3ccccc3)cc2)cc1
63	Cc1ccc(/C=C/S(=O)(=O)NCC(=O)Nc2ccc(OCc3ccccc3)cc2)cc1
66	O=C(Cc1ccc(F)cc1)NNC(=S)NC(=O)Cc1c(F)cccc1F
52	Cc1ccc(S(=O)(=O)NCC(=O)Nc2cccc(Br)c2)cc1
75	Cc1ccc(S(=O)(=O)NCC(=O)NCc2ccc(Br)cc2)cc1
85	C[C@@H](NC(=O)CNS(=O)(=O)Cc1ccccc1)c1ccccc1
60	O=C(CNS(=O)(=O)c1ccc(Cl)cc1)Nc1ccccc1Br
67	O=C(Cc1ccc(F)cc1)NNC(=S)NC(=O)Cc1ccc(F)cc1
67	O=C(Cc1ccc(F)cc1)NNC(=S)NC(=O)CC1CCCCC1
67	Cc1ccc(S(=O)(=O)NCC(=O)NCc2ccc(Br)cc2F)cc1
87	COc1ccc(NC(=O)CNC(=O)COc2ccccc2)c(C)c1
62	Cc1ccc(S(=O)(=O)NCC(=O)Nc2cccc([N+](=O)[O-])c2)cc1
86	Cc1ccc(S(=O)(=O)NCC(=O)N[C@@H](C)c2ccccc2)cc1
